Several values for one entry are separate records, joined by “and”; a condition that tells them apart may be missing. Equal values may be shown once. Some results are limits rather than exact numbers.

This note sets out measurements from patent US8937067B2, “Activators of human pyruvate kinase” (The United States of America, as represented by the …, priority 2008, dated 2015).

Test [1] concerns the target T1, hPK-M2 (Homo sapiens, UniProt P14618). The experiment in a line: Luminescent pyruvate kinase-luciferase coupled assay (KinaseGlo). In kind it is biochemical. The conditions noted are these: for activation at 57 µM / hPK, M2 Max. Res.: KinaseGlo, % activation at 57 μM of compound; for activation at 57 µM: read-out: hPK, M2 Max. Res. As for the experimental part:
Luminescent Pyruvate Kinase-Luciferase Coupled Assay.
Production of a luminescent signal based on the generation of ATP by pyruvate kinase was determined by using the ATP-dependent enzyme firefly luciferase. Three μL of substrate mix (at r.t.) in assay buffer (50 mM imidazole pH 7.2, 50 mM KCl, 7 mM MgCl2, 0.01% tween 20, 0.05% BSA) was dispensed into Kalypsys white solid bottom 1,536 well microtiter plates using a bottle-valve solenoid-based dispenser (Kalypsys). The final concentrations of substrates in the assay were 0.1 mM ADP and 0.5 mM PEP. […] Microtiter plates were incubated at r.t. for 1 hour and 2 uL of luciferase detection mix (Kinase-Glo, Promega at 4° C. protected from light) was added and luminescence was read with a ViewLux (Perkin Elmer) using a 5 second exposure/plate. Data was normalized for AC50 values to control columns containing uninhibited enzyme (n), and AC100 inhibition (i) according the following equation: Activation (%)=[(c−n)/(n−i)]*100 where c=compound, n=DMSO neutral, i=no enzyme control. […] Monitoring of activation was accomplished using enzyme at 3× the final concentration.

For test [2], the target named is T1, hPK-M2. The experiment in a line: Fluorescent pyruvate kinase-lactate dehydrogenase (LDH) coupled secondary assay. In kind it is biochemical. The note with it: for LDH hPK, M2 Max. Res.: % activation at 57 μM of compound; for Emax: read-out: maximum response, LDH assay. As for the experimental part: Fluorescent Pyruvate Kinase-Lactate Dehydrogenase Coupled Secondary Assay.
Plates were immediately placed in ViewLux (Perkin Elmer) and NADH fluorescence was determined at 30 second exposure intervals for between 3 and 6 minutes. Data were normalized to the uninhibited and EC100 activation using known activators such as fructose-1,6-bis-phosphate. […] Data was collected on the Perkin Elmer Viewlux.

[3] abbreviates: luminescent pyruvate kinase-luciferase coupled assay (KinaseGlo), tables, read-out: hPK, M2 AC50.
[4] abbreviates: tables, read-out: LDH hPK, M2 AC50.
[5] abbreviates: luciferase-coupled assay, read-out: AC50.

T1 sequence (P14618 whole entry): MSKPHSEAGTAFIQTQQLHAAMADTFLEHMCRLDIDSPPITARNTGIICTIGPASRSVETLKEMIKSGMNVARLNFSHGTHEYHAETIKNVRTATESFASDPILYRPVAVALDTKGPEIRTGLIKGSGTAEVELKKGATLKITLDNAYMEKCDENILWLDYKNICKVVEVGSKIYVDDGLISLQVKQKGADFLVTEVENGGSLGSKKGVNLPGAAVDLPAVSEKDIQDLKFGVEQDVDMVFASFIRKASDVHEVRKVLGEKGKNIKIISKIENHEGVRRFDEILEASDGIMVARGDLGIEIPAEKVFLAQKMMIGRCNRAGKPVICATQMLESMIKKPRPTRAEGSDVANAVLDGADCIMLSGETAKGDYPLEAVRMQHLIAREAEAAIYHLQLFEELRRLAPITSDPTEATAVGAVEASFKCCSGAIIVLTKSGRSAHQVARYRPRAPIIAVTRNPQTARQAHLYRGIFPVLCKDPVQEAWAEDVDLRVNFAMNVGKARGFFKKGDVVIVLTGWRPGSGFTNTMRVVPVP

As usually defined, the AC50 is the midpoint of the concentration-response curve, whichever way the signal moves. As for `COc1cc(F)c(S(=O)(=O)N2CCCN(S(=O)(=O)c3ccc4c(c3)OCCO4)CC2)c(F)c1` [Compound 128], the activation at 57 µM on hPK-M2 [1] turned out to be 96.7%. Besides, the figures for the AC50 at hPK-M2 [1] (setting [3]) and at hPK-M2 [2] (setting [4]) were 0.0366 µM and 0.058 µM, respectively. For the same molecule, the “LDH hPK, M2 Max. Res.” value at hPK-M2 [2] was found to be 159.85%.

With `Cc1cc2c(s1)c1cnn(Cc3c(F)cccc3F)c(=O)c1n2C` [Compound 113, 2,4-Methyl-6-[(2,6-difluorophenyl)methyl]-4H-thieno[3,2-b]pyrrole[3,2-d]pyridazinone], at hPK-M2 [1], the activation at 57 µM worked out at 93.8 ± 5%. In addition, the concentration at half-maximal activity (AC50) at hPK-M2 [1] (setting [3]) was 0.049 ± 0.02 µM; on hPK-M2 [2] (read-out: AC50, LDH assay), 0.14 ± 0.01 µM. For the same molecule, the Emax on hPK-M2 [2] amounted to 240%.

Consider `Nc1ccc(S(=O)(=O)N2CCN(S(=O)(=O)c3ccc4c(c3)OCCO4)CC2)cc1` [Compound 151], for which the “hPK, M2 Max. Res.” value on hPK-M2 [1] worked out at 91.84%. Further, the AC50 on hPK-M2 [1] (setting [3]) came to 0.411 µM; at hPK-M2 [2] (setting [4]), 0.366 µM. In addition, on hPK-M2 [2], the “LDH hPK, M2 Max. Res.” value is 174.46%.

As for `Cn1c2cc(C=O)sc2c2cnn(Cc3ccccc3F)c(=O)c21` [Compound 84, 2-Formyl-4-methyl-6-[(2-fluorophenyl)methyl]-4H-thieno[3,2-b]pyrrole[3,2-d]pyridazinone], the activation at 57 µM on hPK-M2 [1] was 99.8 ± 6.5%. Also, the AC50 at hPK-M2 [1] (setting [3]) was determined as 0.016 ± 0.01 µM; at hPK-M2 [2] (read-out: AC50, LDH assay), 0.1 ± 0.01 µM. In addition, on hPK-M2 [2], the Emax came to 239%.

On to `O=S(=O)(c1ccc2ccccc2c1)N1CCN(S(=O)(=O)c2c(F)cccc2F)CC1` [Compound 26, 1-(2,6-difluorophenylsulfonyl)-4-(naphthalen-2-ylsulfonyl)piperazine], for which the activation at 57 µM on hPK-M2 [1] worked out at 138 ± 11.3%. Also, the AC50 on hPK-M2 [1] (setting [3]) amounted to 0.066 µM; on hPK-M2 [2] (read-out: AC50, LDH assay), 0.22 ± 0.053 µM. For the same molecule, the Emax on hPK-M2 [2] worked out at 161 ± 29%.

As for `Cc1cc2c(s1)c1c(C)nn(Cc3ccccc3F)c(=O)c1n2C` [Compound 92, 2,4,8-Methyl-6-[(2-fluorophenyl)methyl]-4H-thieno[3,2-b]pyrrole[3,241]-pyridazinone], the Emax at hPK-M2 [1] (luciferase-coupled assay, relative to activation by FBP, read-out: maximum response) is below 80%; at hPK-M2 [2] it was below 80%.

With `COc1cc(F)c(S(=O)(=O)N2CCN(S(=O)(=O)c3ccco3)CC2)c(F)c1` [Compound 145], on hPK-M2 [1], the “hPK, M2 Max. Res.” value is on record as 82.49%. Besides, the half-maximal activity concentration (AC50) at hPK-M2 [1] (setting [3]) came out at 0.183 µM; at hPK-M2 [2] (setting [4]), 0.116 µM. The “LDH hPK, M2 Max. Res.” value on hPK-M2 [2] is reported as 106.13%.

Consider `O=S(=O)(c1c(F)cccc1F)N1CCN(S(=O)(=O)c2c(F)cccc2F)CC1` [Compound 22, 1,4-bis(2,6-difluorophenylsulfonyl)piperazine], for which the activation at 57 µM on hPK-M2 [1] worked out at 74.3 ± 9.8%. Also, the AC50 at hPK-M2 [1] (setting [3]) was found to be 0.066 µM; at hPK-M2 [2] (read-out: AC50, LDH assay) it was 0.172 ± 0.029 µM. Further, the Emax at hPK-M2 [2] amounted to 85 ± 8%.

Regarding `COc1cc(F)c(S(=O)(=O)N2CCCN(S(=O)(=O)c3cccc(NC(C)=O)c3)CC2)c(F)c1` [Compound 126], on hPK-M2 [1], the activation at 57 µM was found to be 83.8%. Also, the AC50 at hPK-M2 [1] (setting [3]) and on hPK-M2 [2] (setting [4]) was 2.91 µM throughout. Moreover, the “LDH hPK, M2 Max. Res.” value on hPK-M2 [2] turned out to be 114.61%.

With `Cc1ccc(N[S+](=O)([O-])c2ccc3c(c2)CCC(=O)N3)cc1C` [Compound 150], the activation at 57 µM on hPK-M2 [1] is 84%. Besides, the AC50 stood at 0.163 µM at hPK-M2 [1] (setting [3]) and 0.146 µM on hPK-M2 [2] (setting [4]). Also, the “LDH hPK, M2 Max. Res.” value at hPK-M2 [2] was 153.98%.

On to `COc1ccc(S(=O)(=O)N2CCN(S(=O)(=O)c3ccc4c(c3)OCCO4)CC2)cc1` [Compound 1, 1-(2,3-dihydrobenzo[b][1,4]dioxin-6-ylsulfonyl)-4-(4-methoxyphenylsulfonyl)piperazine], for which the activation at 57 µM at hPK-M2 [1] was determined as 92.2 ± 12%. The half-maximal activity concentration (AC50) on hPK-M2 [1] (setting [5]) was found to be 0.063 ± 0.02 µM; on hPK-M2 [1] (setting [3]), 0.111 µM; on hPK-M2 [2] (read-out: AC50, LDH assay), 0.3 ± 0.1 µM. The maximum response on hPK-M2 [1] (luciferase-coupled assay, relative to activation by FBP) was 122.1% and 92.2%. The Emax at hPK-M2 [2] was determined as 224%.

As for `O=S(=O)(c1ccc2c(c1)OCCCO2)N1CCN(S(=O)(=O)c2c(F)cccc2F)CC1` [Compound 23, 1-(2,6-difluorophenylsulfonyl)-4-(3,4-dihydro-2,1-benzo[b][1,4]dioxepin-7-ylsulfonyl)piperazine], the activation at 57 µM on hPK-M2 [1] is 100 ± 6.6%. The AC50 was 0.103 µM on hPK-M2 [1] (setting [5]) and around 0.5 µM on hPK-M2 [2] (read-out: AC50, LDH assay). Further, at hPK-M2 [2], the Emax was determined as 109 ± 11%.

For the molecule `Cc1cc2c(s1)c1cnn(Cc3ccc(Cl)cc3)c(=O)c1n2C` [Compound 108, 2,4-Methyl-6-[(4-chlorophenyl)methyl]-4H-thieno[3,2-b]pyrrole[3,2-d]pyridazinone], the activation at 57 µM on hPK-M2 [1] worked out at 90.6 ± 3.3%. In addition, the AC50 at hPK-M2 [1] (setting [3]) came to 0.326 ± 0.09 µM; at hPK-M2 [2] (read-out: AC50, LDH assay) it was 1.65 µM. Also, the Emax at hPK-M2 [2] was found to be 191%.

`CC(=O)Nc1cccc(S(=O)(=O)N2CCCN(S(=O)(=O)c3ccc4c(c3)OCCO4)CC2)c1` [Compound 131]: the “hPK, M2 Max. Res.” value on hPK-M2 [1] came to 91.11%. Further, the half-maximal activity concentration (AC50) at hPK-M2 [1] (setting [3]) and on hPK-M2 [2] (setting [4]) was 0.819 µM each time. Also, at hPK-M2 [2], the “LDH hPK, M2 Max. Res.” value is 123.67%.

For `Cc1cc2c(s1)c1cnn(Cc3ccccc3Cl)c(=O)c1n2C` [Compound 106, 2,4-Methyl-6-[(2-chlorophenyl)methyl]-4H-thieno[3,2-b]pyrrole[3,2-d]pyridazinone], the activation at 57 µM at hPK-M2 [1] was found to be 95.6 ± 10%. Besides, the concentration at half-maximal activity (AC50) on hPK-M2 [1] (setting [3]) worked out at 0.298 ± 0.14 µM.

As for `Cc1cc2c(s1)c1cnn(Cc3ccc(F)cc3)c(=O)c1n2C` [Compound 105, 2,4-Methyl-6-[(4-fluorophenyl)methyl]-4H-thieno[3,2-b]pyrrole[3,2-d]pyridazinone], at hPK-M2 [1], the activation at 57 µM worked out at 102 ± 8.9%. The half-maximal activity concentration (AC50) at hPK-M2 [1] (setting [3]) came out at 0.057 ± 0.02 µM.

With `O=S(=O)(NCCCCNS(=O)(=O)c1c(F)cccc1F)c1ccc2c(c1)OCCO2` [Compound 34, N-(4-(2,6-difluorophenylsulfonamido)butyl)-2,3-dihydrobenzo[b][1,4]dioxine-6-sulfonamide], on hPK-M2 [1], the activation at 57 µM is 113 ± 14.6%. Moreover, on hPK-M2 [1] (setting [3]), the AC50 was 7.97 ± 4.05 µM.

Take `Cc1cc2c(s1)c1cnn(Cc3ccccc3)c(=O)c1n2C` [Compound 103, 2,4-Methyl-6-phenylmethyl-4H-thieno[3,2-b]pyrrole[3,2-d]pyridazinone]: the AC50 on hPK-M2 [1] (setting [3]) was 0.062 ± 0.02 µM.

In the case of `O=S(=O)(c1ccc2c(c1)OCCO2)N1CCN(S(=O)(=O)c2cc(F)c(F)cc2F)CC1` [Compound 10, 1-(2,3-dihydrobenzo[b][1,4]dioxin-6-ylsulfonyl)-4-(2,4,5-trifluorophenylsulfonyl)piperazine], the activation at 57 µM on hPK-M2 [1] was determined as 105 ± 7.6%. In addition, on hPK-M2 [1] (setting [3]), the concentration at half-maximal activity (AC50) was determined as 0.09 µM.

In the case of `Cc1cc2c(s1)c1cnn(Cc3cccc(C)c3F)c(=O)c1n2C` [Compound 118, 2,4-Methyl-6-[(3-methyl-2-fluorophenyl)methyl]-4H-thieno[3,2-b]pyrrole[3,2-d]pyridazinone], on hPK-M2 [1], the activation at 57 µM came to 97.4 ± 6.9%. In addition, the AC50 on hPK-M2 [1] (setting [3]) came to 0.035 ± 0.01 µM.

Take `C[C@@H]1CN(S(=O)(=O)c2c(F)cccc2F)CCN1S(=O)(=O)c1ccc2c(c1)OCCO2` [Compound 46, (R)-4-(2,6-difluorophenylsulfonyl)-1-(2,3-dihydrobenzo[b][1,4]dioxin-6-ylsulfonyl)-2-methylpiperazine]: at hPK-M2 [1], the activation at 57 µM worked out at 98.8 ± 2.6%. On hPK-M2 [1] (setting [3]), the concentration at half-maximal activity (AC50) turned out to be 3.1 ± 1.17 µM.

Consider `O=C(COP(=O)(O)O)[C@@H](O)[C@H](O)[C@H](O)COP(=O)(O)O` [FBP, fructose-1,6-bis-phosphate, reference compound], for which, at hPK-M2 [1] (average, 100% is approximately a 2-fold increase over basal signal), the “% Activation by FBP” value stood at 100%.

`O=S(=O)(c1ccc2c(c1)OCCO2)N1CCN(S(=O)(=O)c2ccc(F)cc2F)CC1` [Compound 14, 1-(2,4-difluorophenylsulfonyl)-4-(2,3-dihydrobenzo[b][1,4]dioxin-6-ylsulfonyl)piperazine]: at hPK-M2 [1], the activation at 57 µM is 113 ± 6.3%. Besides, at hPK-M2 [1] (setting [3]), the AC50 was determined as 0.124 µM.
